Values quoted from earlier work as cited in US11191849B2, “Compositions and methods for delivering messenger RNA” (ARBUTUS BIOPHARMA CORPORATION, priority 2016, dated 2021).

| Compound | log P |
| --- | --- |
| CC(C)C(=O)OCC(=O)[C@@]12O[C@H](C3CCCCC3)O[C@@H]1C[C@H]1[C@@H]3CCC4=CC(=O)C=C[C@]4(C)[C@H]3[C@@H](O)C[C@@]12C [Ciclesonide] | ~5.3 |
| CCCCCCCCCCCCCCCC(=O)OCC(=O)[C@@]1(O)[C@H](C)C[C@H]2[C@@H]3CCC4=CC(=O)C=C[C@]4(C)[C@@]3(F)[C@@H](O)C[C@@]21C [Dex-P, Dexamethasone 21-palmitate] | ~9 |
| CCC(=O)O[C@]1(C(=O)CCl)[C@@H](C)C[C@H]2[C@@H]3CCC4=CC(=O)C=C[C@]4(C)[C@@]3(F)[C@@H](O)C[C@@]21C [Clobetasol, clobetasol-17-propionate] | ~3.5 |
